Among the data in US20250236611A1, “PYRAZOLE COMPOUNDS AND USES THEREOF” (ALCON INC., priority 2021, published 2025) are IC50 values, retold here.

What all share (format): biochemical
Common to all, as to conditions: 10 nM JAK enzyme, 800 nM Abl peptide, room temperature 75 min

For one test, the target named is JAK1 (Homo sapiens, UniProt P23458). As to the kind of experiment: JAK assay (KINASE-GLO luminescent kinase assay), JAK1. In a few lines:
(§1)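 The 2× mix gave 10 nM kinase, 800 nM Abl peptide and 2 µM DTT, and ATP was added as a 4× stock (2 µM), in HEPES pH 7.5 buffer. Compounds ran as an 11-point series, 100 µM–10 pM final in 2.5% DMSO, for 75 min at RT. Remaining ATP was read by luminescence against DMSO control, and 4-parameter IC50s were converted to Ki by Cheng-Prusoff.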

For a further test, the target named is JAK2 (Homo sapiens, UniProt O60674). Nature of the test: JAK assay (KINASE-GLO luminescent kinase assay), JAK2. Summed up: as §1
Sequence of JAK2 (O60674 whole entry): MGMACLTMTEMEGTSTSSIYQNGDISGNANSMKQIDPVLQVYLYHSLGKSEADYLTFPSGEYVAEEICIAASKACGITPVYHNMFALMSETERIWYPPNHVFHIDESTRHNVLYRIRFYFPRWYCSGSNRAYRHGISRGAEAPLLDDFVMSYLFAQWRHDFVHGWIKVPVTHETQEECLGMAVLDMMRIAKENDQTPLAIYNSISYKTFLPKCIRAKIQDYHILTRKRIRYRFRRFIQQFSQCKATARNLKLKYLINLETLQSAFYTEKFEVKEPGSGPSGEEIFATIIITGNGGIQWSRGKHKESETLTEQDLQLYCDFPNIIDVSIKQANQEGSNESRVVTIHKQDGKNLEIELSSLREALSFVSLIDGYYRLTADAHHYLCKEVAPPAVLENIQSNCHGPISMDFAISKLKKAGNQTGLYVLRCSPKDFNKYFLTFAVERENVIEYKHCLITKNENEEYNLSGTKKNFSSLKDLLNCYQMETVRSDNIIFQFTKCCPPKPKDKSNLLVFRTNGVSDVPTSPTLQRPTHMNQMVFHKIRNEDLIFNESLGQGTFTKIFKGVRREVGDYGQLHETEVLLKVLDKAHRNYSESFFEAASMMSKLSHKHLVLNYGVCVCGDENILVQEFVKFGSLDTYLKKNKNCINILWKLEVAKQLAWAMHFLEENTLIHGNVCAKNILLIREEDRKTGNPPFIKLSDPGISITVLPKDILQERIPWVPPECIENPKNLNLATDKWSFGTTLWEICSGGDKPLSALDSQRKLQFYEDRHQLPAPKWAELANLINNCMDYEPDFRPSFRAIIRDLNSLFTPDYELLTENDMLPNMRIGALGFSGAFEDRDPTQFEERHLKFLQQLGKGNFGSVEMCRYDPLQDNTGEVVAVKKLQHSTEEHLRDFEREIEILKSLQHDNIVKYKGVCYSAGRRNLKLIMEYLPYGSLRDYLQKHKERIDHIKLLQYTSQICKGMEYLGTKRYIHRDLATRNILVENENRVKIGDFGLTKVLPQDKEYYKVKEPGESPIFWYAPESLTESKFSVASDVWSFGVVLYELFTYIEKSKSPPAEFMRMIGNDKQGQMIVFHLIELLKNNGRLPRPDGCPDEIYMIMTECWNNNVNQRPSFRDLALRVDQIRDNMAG
Background: In Kinase-Glo more light means more ATP remaining.

The next test addresses T1, JAK3 (Homo sapiens, UniProt P52333).
T1 sequence (P52333 1-1124): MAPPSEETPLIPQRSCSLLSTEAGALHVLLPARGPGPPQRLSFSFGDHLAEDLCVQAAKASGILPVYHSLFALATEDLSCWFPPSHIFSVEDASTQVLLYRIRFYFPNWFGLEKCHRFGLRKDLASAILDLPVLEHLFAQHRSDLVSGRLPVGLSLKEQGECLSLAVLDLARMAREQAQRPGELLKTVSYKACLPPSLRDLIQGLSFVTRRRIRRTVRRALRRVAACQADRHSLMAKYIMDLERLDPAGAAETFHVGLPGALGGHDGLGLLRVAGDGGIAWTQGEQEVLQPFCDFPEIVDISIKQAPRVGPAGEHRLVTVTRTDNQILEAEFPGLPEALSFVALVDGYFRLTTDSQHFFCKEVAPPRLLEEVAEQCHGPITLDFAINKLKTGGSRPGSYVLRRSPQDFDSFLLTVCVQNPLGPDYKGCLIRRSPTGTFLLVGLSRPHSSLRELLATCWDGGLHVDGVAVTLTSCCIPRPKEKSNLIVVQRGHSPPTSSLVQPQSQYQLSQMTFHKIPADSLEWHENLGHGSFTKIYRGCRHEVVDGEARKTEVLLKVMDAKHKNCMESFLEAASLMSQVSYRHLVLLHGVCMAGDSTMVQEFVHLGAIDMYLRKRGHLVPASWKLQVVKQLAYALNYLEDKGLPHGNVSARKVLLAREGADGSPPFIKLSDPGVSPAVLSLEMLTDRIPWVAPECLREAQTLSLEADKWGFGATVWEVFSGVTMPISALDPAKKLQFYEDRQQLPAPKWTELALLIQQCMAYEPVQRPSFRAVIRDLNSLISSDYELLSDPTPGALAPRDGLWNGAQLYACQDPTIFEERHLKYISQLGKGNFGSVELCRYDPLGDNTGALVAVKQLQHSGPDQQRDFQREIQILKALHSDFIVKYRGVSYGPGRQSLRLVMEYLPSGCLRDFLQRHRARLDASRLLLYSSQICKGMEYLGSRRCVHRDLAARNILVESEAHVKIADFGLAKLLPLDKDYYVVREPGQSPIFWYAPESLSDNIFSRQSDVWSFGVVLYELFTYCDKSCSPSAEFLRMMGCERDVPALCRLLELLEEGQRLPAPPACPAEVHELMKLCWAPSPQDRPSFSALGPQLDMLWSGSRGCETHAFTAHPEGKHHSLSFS
Nature of the test: JAK assay (KINASE-GLO luminescent kinase assay), JAK3. In a few lines:
as §1

For a further test, the target named is TYK2 (Homo sapiens, UniProt P29597). Nature of the test: JAK assay (KINASE-GLO luminescent kinase assay), TYK2.
Sequence of TYK2 (P29597 whole entry): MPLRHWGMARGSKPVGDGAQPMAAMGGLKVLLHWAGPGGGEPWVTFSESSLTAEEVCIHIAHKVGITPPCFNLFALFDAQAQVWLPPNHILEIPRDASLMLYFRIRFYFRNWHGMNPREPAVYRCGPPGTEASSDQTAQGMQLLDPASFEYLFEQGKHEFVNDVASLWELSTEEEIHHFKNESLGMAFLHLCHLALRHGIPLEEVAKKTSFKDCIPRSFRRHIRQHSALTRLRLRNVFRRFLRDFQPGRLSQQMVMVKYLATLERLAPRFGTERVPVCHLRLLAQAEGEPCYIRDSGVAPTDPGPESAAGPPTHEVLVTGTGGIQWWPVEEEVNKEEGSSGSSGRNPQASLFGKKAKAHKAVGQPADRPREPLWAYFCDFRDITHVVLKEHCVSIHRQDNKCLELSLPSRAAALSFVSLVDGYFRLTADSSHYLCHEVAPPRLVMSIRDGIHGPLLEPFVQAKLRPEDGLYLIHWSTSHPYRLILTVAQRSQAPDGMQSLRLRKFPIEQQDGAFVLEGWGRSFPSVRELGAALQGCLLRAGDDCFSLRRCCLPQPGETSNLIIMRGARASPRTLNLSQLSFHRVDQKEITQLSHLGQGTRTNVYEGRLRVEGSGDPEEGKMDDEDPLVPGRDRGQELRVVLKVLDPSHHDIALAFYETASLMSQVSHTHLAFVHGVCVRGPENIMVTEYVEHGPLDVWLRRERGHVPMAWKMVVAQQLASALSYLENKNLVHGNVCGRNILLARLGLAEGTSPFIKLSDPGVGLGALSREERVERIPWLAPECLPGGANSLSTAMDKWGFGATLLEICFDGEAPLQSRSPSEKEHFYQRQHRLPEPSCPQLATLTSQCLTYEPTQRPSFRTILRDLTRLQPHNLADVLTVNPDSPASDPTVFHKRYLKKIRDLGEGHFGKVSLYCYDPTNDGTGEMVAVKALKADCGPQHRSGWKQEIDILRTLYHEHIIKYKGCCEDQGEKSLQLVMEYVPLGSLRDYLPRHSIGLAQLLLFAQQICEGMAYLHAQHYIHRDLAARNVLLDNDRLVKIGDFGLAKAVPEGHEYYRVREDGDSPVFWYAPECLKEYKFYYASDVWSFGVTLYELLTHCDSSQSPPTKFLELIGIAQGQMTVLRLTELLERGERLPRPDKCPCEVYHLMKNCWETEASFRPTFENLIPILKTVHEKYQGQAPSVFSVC

Sequence of JAK1 (P23458 whole entry): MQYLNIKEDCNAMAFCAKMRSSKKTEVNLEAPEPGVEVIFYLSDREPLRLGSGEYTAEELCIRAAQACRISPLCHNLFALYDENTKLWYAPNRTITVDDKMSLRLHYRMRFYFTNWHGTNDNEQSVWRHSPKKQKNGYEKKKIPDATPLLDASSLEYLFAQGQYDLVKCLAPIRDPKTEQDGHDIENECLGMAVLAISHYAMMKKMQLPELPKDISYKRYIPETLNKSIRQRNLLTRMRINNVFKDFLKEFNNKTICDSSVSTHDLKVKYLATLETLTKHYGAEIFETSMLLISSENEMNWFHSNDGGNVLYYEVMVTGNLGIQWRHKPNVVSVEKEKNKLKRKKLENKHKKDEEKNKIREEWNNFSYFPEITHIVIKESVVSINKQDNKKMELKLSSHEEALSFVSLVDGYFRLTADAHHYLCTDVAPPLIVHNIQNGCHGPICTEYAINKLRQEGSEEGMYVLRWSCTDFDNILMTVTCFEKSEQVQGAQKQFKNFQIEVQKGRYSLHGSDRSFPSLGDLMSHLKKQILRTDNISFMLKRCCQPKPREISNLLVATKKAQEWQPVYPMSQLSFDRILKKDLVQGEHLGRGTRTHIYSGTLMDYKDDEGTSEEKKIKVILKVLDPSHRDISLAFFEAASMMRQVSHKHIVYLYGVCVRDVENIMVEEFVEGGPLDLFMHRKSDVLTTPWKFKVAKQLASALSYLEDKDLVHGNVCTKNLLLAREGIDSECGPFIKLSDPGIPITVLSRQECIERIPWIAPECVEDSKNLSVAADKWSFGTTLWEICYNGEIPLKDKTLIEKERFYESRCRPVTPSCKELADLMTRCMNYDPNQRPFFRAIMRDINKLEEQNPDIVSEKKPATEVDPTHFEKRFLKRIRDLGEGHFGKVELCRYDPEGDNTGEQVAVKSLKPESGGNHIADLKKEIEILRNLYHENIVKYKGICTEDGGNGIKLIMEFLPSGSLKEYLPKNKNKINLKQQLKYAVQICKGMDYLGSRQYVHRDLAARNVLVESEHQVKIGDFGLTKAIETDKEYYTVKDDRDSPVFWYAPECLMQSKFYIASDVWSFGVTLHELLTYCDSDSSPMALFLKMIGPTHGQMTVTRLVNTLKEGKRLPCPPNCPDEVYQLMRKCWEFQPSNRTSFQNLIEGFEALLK

A word on the IC50: it is the midpoint of a concentration-inhibition curve. Consider `Cc1cc(Nc2ncc(C)c(-c3cnn(CC4(CN(C)C)CC4)c3)n2)sn1` [CN(C)CC1(CC1)C[N]2C═C(C═N2)C3═C], for which the IC50 is under 100 nM against JAK1, under 10 nM against JAK2, under 100 nM against JAK3 and under 100 nM against TYK2.
Turning to `Cc1cnc(Nc2ccnc(CN(C)C)c2)nc1-c1cnn(CC2(CF)CCC2)c1` [CN(C)CC1═CC(═CC═N1)NC2═NC(═C], the IC50 is under 1000 nM at JAK1, under 10 nM at JAK2, under 100 nM against JAK3 and under 100 nM on TYK2.
As for `Cc1cnc(Nc2cc(CN(C)C)ns2)nc1-c1cnn(CC2(CF)CC2)c1` [CN(C)CC1═NSC(═C1)NC2═NC(═C], the IC50 is under 100 nM against JAK1, under 10 nM against JAK2, under 100 nM on JAK3 and under 10 nM against TYK2.
On to `Cc1cnc(Nc2cccc(CNC(=O)CN(C)C)c2)nc1-c1cnn(CC2(CF)CC2)c1` [CN(C)CC(═O)NCC1═CC═CC(═C1)NC2═NC], for which the IC50 on JAK1 is under 100 nM; against JAK2, under 10 nM; on JAK3, under 10 nM; against TYK2 it was under 100 nM.
With `Cc1cnc(Nc2ccc(CCN(C)C)cc2)nc1-c1cnn(CC2(CF)CC2)c1` [CN(C)CCC1═CC═C(NC2═NC(═C], the IC50 at JAK1 is under 1000 nM; at JAK2, under 10 nM; at JAK3, under 100 nM; against TYK2, under 100 nM.
On to `Cc1cnc(Nc2ccc(CNC(=O)CCN(C)C)cc2)nc1-c1cnn(CC2(CF)CC2)c1` [CN(C)CCC(═O)NCC1═CC═C(NC2═NC(═C], for which the IC50 at JAK1 was under 100 nM; at JAK2, under 10 nM; at JAK3, under 100 nM; against TYK2, under 100 nM.
In the case of `Cc1cnc(Nc2cc(CNC(=O)CCN(C)C)ns2)nc1-c1cnn(CC2(CF)CC2)c1` [CN(C)CCC(═O)NCC1═NSC(═C1)NC2═NC], the IC50 against JAK1, against JAK2, against JAK3 and at TYK2 was under 10 nM in each case.
Turning to `Cc1cnc(Nc2cc(COC(=O)CCN(C)C)ns2)nc1-c1cnn(CC2(CF)CC2)c1` [CN(C)CCC(═O)OCC1═NSC(═C1)NC2═NC], the IC50 at JAK1 was under 100 nM; on JAK2, under 10 nM; against JAK3 it was under 10 nM; against TYK2, under 10 nM.
For the molecule `Cc1cnc(Nc2ccc(C(=O)NCCN(C)C)cc2)nc1-c1cnn(CC2(CF)CC2)c1` [CN(C)CCNC(═O)C1═CC═C(NC2═NC], the IC50 against JAK1 was under 100 nM; against JAK2 it was under 10 nM; against JAK3 it was under 100 nM; against TYK2, under 10 nM.
For `Cc1cnc(Nc2ccnc(OCCN(C)C)c2)nc1-c1cnn(CC2(CC#N)CC2)c1` [CN(C)CCOC1═CC(═CC═N1)NC2═NC(═C], the half-maximal inhibitory concentration (IC50) at JAK1 was under 100 nM; against JAK2, under 10 nM; against JAK3, under 100 nM; at TYK2, under 100 nM.
For the molecule `CNC1(Cn2cc(-c3nc(Nc4cc(C)ns4)ncc3Cl)cn2)CC1` [CNC1(CC1)C[N]2C═C(C═N2)C3═C], the IC50 against JAK1 was under 100 nM; on JAK2 it was under 10 nM; against JAK3, under 10 nM; against TYK2, under 100 nM.
Take `CNC(=O)c1ccc(Nc2ncc(C)c(-c3cnn(CC4(CF)CC4)c3)n2)cc1` [CNC(═O)C1═CC═C(NC2═NC(═C]: the IC50 against JAK1, against JAK2, against JAK3 and at TYK2 was under 10 nM throughout.
As to `CNC(=O)c1cccc(Nc2ncc(Cl)c(-c3cnn(CC4(NC)CC4)c3)n2)c1` [CNC(═O)C1═CC═CC(═C1)NC2═NC], the IC50 was under 1000 nM at JAK1, under 10 nM on JAK2, under 100 nM on JAK3 and under 1000 nM at TYK2.
Take `CNCc1cc(Nc2ncc(C)c(-c3cnn(CC4(CF)CC4)c3)n2)sn1` [CNCC1═NSC(═C1)NC2═NC(═C]: the IC50 against JAK1 is under 100 nM; on JAK2, under 10 nM; against JAK3, under 100 nM; against TYK2 it was under 100 nM.
As for `COC1(c2ccc(Nc3ncc(C)c(-c4cnn(CC5(CF)CC5)c4)n3)cc2)COC1` [COC1(COC1)C2═CC═C(NC3═NC(═C], the IC50 was 1880 nM on JAK1, under 100 nM on JAK2, under 1000 nM on JAK3 and under 1000 nM against TYK2.
Take `COc1cnc(Nc2cc(COC(=O)c3ccccc3)ns2)nc1-c1cnn(CC2(CF)CC2)c1` [COC1═C(N═C(NC2═CC(═NS2)COC]: the IC50 against JAK1 is under 100 nM; against JAK2, under 10 nM; against JAK3, under 100 nM; at TYK2, under 100 nM.
For `COc1cnc(Nc2ccc(C3(O)COC3)cc2)nc1-c1cnn(CC2(CF)CC2)c1` [COC1═C(N═C(NC2═CC═C(C═C2)C3], the IC50 at JAK1 is under 1000 nM; on JAK2, under 10 nM; against JAK3 it was under 100 nM; against TYK2, under 100 nM.
As for `COc1cnc(Nc2ccc(N3CCN(C)CC3)cc2)nc1-c1cnn(CC2(Cl)CC2)c1` [COC1═C(N═C(NC2═CC═C], the concentration for half-maximal inhibition (IC50) against JAK1 was under 100 nM; at JAK2, under 10 nM; at JAK3, under 10 nM; against TYK2, under 100 nM.
With `COc1ccc(Nc2ncc(C)c(-c3cnn(CC4(CF)CC4)c3)n2)cn1` [COC1═CC═C(NC2═NC(═C], the IC50 is under 1000 nM at JAK1, under 10 nM against JAK2, under 100 nM against JAK3 and under 100 nM against TYK2.
With `COc1cc(Nc2ncc(C)c(-c3cnn(CC4(CF)CC4)c3)n2)sn1` [COC1═NSC(═C1)NC2═NC(═C], the IC50 against JAK1 is under 100 nM; on JAK2, under 10 nM; at JAK3 it was under 100 nM; against TYK2, under 10 nM.
In the case of `COC(=O)c1cc(Nc2ncc(C)c(-c3cnn(CCC#N)c3)n2)ccc1N1CCOCC1` [COC(═O)C1═C(C═CC(═C1)NC2═NC(═C], the IC50 against JAK1, on JAK2, against JAK3 and against TYK2 was under 10 nM in each case.
For `COC(=O)c1cc(Nc2ncc(C)c(-c3cnn(CCC#N)c3)n2)ccc1N1CCOCC1` [COC(═O)C1═CC(═CC═C1)NC2═NC(═C], the half-maximal inhibitory concentration (IC50) is under 100 nM at JAK1, under 10 nM against JAK2, under 10 nM at JAK3 and under 100 nM against TYK2.
As for `COC(=O)c1cccc(Nc2ncc(Cl)c(-c3cnn(CCC#N)c3)n2)c1` [COC(═O)C1═CC═CC(═C1)NC2═NC], the IC50 on JAK1 was under 100 nM; on JAK2, under 10 nM; at JAK3, under 10 nM; at TYK2, under 100 nM.
Consider `COC(=O)c1ccc(Nc2ncc(Cl)c(-c3cnn(CC4(C#N)CC4)c3)n2)cn1` [COC(═O)C1═NC═C(NC2═NC(═C], for which the half-inhibitory concentration (IC50) against JAK1 was under 1000 nM; on JAK2 it was under 10 nM; against JAK3, under 100 nM; at TYK2, under 100 nM.
For `COCc1cc(Nc2ncc(C)c(-c3cnn(CC4(CF)CC4)c3)n2)sn1` [COCC1═NSC(═C1)NC2═NC(═C], the IC50 against JAK1 was under 1000 nM; against JAK2 it was under 100 nM; at JAK3 it was under 1000 nM; against TYK2, under 1000 nM.
Turning to `COCCOc1ccc(Nc2ncc(C)c(-c3cnn(CC4(CF)CC4)c3)n2)cc1` [COCCOC1═CC═C(NC2═NC(═C], the IC50 was under 100 nM on JAK1, under 10 nM against JAK2, under 100 nM at JAK3 and under 100 nM on TYK2.
Take `COCCOCc1cc(Nc2ncc(C)c(-c3cnn(CC4(CF)CC4)c3)n2)sn1` [COCCOCC1═NSC(═C1)NC2═NC(═C]: the half-maximal inhibitory concentration (IC50) against JAK1, at JAK2, against JAK3 and against TYK2 was under 1000 nM each time.
Take `Cc1cnc(Nc2ccc(CNC(=O)[C@H](C)N)cc2)nc1-c1cnn(CC2(CF)CC2)c1` [C[C@H](N)C(═O)NCC1═CC═C(NC2═NC]: the IC50 on JAK1 is under 100 nM; on JAK2 it was under 10 nM; against JAK3 it was under 100 nM; at TYK2, under 100 nM.
As to `Cc1cnc(Nc2ccc(CNC(=O)[C@H](C)NC(=O)OC(C)(C)C)cc2)nc1-c1cnn(CC2(CF)CC2)c1` [C[C@H](NC(═O)OC(C)(C)C)C], the IC50 against JAK1 was under 100 nM; on JAK2 it was under 10 nM; at JAK3, under 100 nM; against TYK2 it was under 100 nM.
